# Test results reported in patent publication US9062037B2, “Tazarotene derivatives” (Stiefel Laboratories, Inc., priority 2009, dated 2015).
# Like-named read-outs stand apart in the source and are kept apart here.
# Assays:
# [1] = test system: Reconstructed human epidermis (RHE) tissues; test: RT-qPCR gene expression of K10, K19, filaggrin, K4 and K13 in reconstructed human epidermis (RHE) cultures; assay type: cell-based; conditions: 72 h, 2.83 mM in OD/10% DMSO, 6 μl
# Description: Reconstructed human epidermis (RHE) tissues were cultured in-house as previously described by Poumay et al. Briefly, polycarbonate culture inserts (12 mm diameter and 0.4 μm pore size, Millipore) were filled with 150 μL of a suspension containing approximately 5×10^5 primary adult human keratinocytes. The inserts received another 500 μL of keratinocyte culture media and were placed in a 6-well plate (1 insert/well) containing 2.5 mL of RHE Growth Media (Epilife media +1.5 mM CaCl2). RHE cultures were incubated at 37° C. in a humidified atmosphere containing 5% CO2, for 24 hours. Subsequently (on Day 0), RHE cultures were exposed to the air-liquid interface by removing the RHE Growth Media from the top of the cultures, and replacing with 1.5 mL/well of RHE Growth Media containing 50 μg/mL vitamin C. Media was changed every other day until the cultures were dosed with Test Articles. A stock solution of 0.1% tazarotene (2.83 mM at 99.5% purity) in OD/10% DMSO was prepared. For tazarotene benzoate, hydroxytazarotenic acid, keto tazarotenic acid, keto tazarotene, and tazarotene nicotinate, a 10 mg/mL stock solution (in DMSO) was already prepared. From this stock solution, a 2.83 mM working solution (in octyldodecanol) was prepared. All other tested compounds were resuspended in DMSO and OD to obtain a final concentration of 2.83 mM in OD/10% DMSO. On Day 12, the cultures were placed in 60 mm petri dishes containing 3 mL of RHE Growth Media (+VitC). Test articles (6 μl) were applied to triplicate cultures and cultures were incubated at 37° C. for 72 hours. Untreated and OD alone served as negative controls. At the end of the incubation period, the growth media was collected and stored at −20° C. The tissues were cut in half: one half was placed in 10% NBF for histology, and the other half was placed in RNAlater™ solution for RT-qPCR. RNA was isolated and concentrations were determined using a NanoDrop spectrophotometer. In addition to using the same amount of RNA for each sample, data was normalized to internal GAPDH mRNA levels and is expressed as relative quantification (RQ) to untreated controls. RNA extracts from each replicate were amplified using RT-qPCR. The relative gene expression of five biomarkers was determined: Keratin 10, Keratin 19, Filaggrin, Keratin 4, and Keratin 13.
# [2] = Reaction with benzoyl peroxide (BPO) in solution; assay type: physicochemical; conditions: at all three temperatures (35° C., room temperature, 5° C.); BPO 50-fold excess by weight
# Description: The reaction of (i) tazarotene, tazarotene benzoate, hydroxy tazarotenic acid and tazarotene nicotinate with (ii) benzoyl peroxide (BPO) in 30% aqueous solutions was monitored at 35° C., room temperature and 5° C.
# Individual solutions of each compound were prepared at approximately 0.25 mg/mL in acetonitrile:water (6:4 by volume). Reactions were initiated by mixing equal volumes of the test solution with an approximately 12 mg/mL solution of benzoyl peroxide (BPO) in acetonitrile:water (4:1 by volume). Therefore, the reaction solution contained approximately 0.125 mg/mL of the test compound and the BPO was at a 50-fold excess by weight (i.e. at the same ratio as a product containing 0.1% tazarotene and 5% BPO). Aliquots of the reaction solutions were stored at various temperatures protected from light.
# Reactions were quenched by diluting 30 μL of the reaction solution to 50 mL with a diluent (acetonitrile:water in a ratio of 1:1 by volume) and storing the sample at 10° C. in the LC/MS sample tray or at 5° C. for storage. Duplicate samples were prepared at each time point (three at the start of the reaction) and the results were averaged together to generate a single value.
# Samples were analyzed on a Waters Acquity UPLC with a Waters Xevo TQMS using an ESI source in the positive mode controlled by MassLynx V4.1 software. […]
# [3] = for k constant: HLM
# Description: (§2) Hepatic microsomal reactions were carried out in microcentrifuge tubes in the following manner. Human liver microsomes (0.5 or 1.0 mg/ml protein), Test Article (1 or 10 μM), paraoxon (0, 10 or 100 μM), NADPH regenerating system (10 mM glucose-6-phosphate, 1 unit/ml glucose-6-phosphate dehydrogenase, 1 mM NADP^+), magnesium chloride (5 mM) in 0.1 M potassium phosphate buffer, pH 7.4 were incubated at 37° C. in a shaking water bath. Reactions were initiated with the addition of substrate with the exception of the zero-time incubations. The total reaction volume was 0.2 ml. The reactions were incubated for 15, 30, 45 or 60 minutes, terminated with 0.2 ml ice-cold acetonitrile and then placed on ice. For zero-time incubations, ice cold acetonitrile was added to the mixture containing microsomes, along with NADPH regenerating system, magnesium chloride in phosphate buffer and the Test Article. Each time point was carried out in triplicate.
# (§3) Disappearance of Test Article and formation of metabolites following in vitro metabolism were determined by LC-MS/MS using multiple reaction monitoring. LightSight® software (Applied Biosystems, Foster City, Calif.) was used to generate the mass spectrometry methods and carry out the data mining.
# (§4) Control incubations were carried out with the identical incubation procedures as described above with the following exceptions. In negative control reactions, microsomes were not included. […] Duplicate reactions with an initial concentration of 10 μM were incubated for 0 or 30 minutes. Microsomal metabolic stability of 7-ethoxycoumarin was determined by LC-MS/MS.
# in vitro = conditions: human, liver microsomes, pH 7.4, Half-life, HLM
# Description: as §2, §3, §4
# [4] = In vitro application of DUAC gel/TAZORAC cream mixture to split-thickness human skin; tazarotene and degradants quantified by LC/MS/MS; assay type: in vitro ADME
# Description: An in vitro study was conducted to assess the formation of tazarotene degradants following the application of a mixture of DUAC gel and TAZORAC cream to human skin.
# Equal portions of DUAC gel and TAZORAC cream were dispensed into a glass vial and mixed for approximately three minutes with a metal spatula to ensure a homogenous mixture. Samples of European DUAC gel and US DUAC gel were used in separate experiments. […] The test mixtures were then applied to the surface of split-thickness skin (˜0.25 mm) at a dose of 15.6 mg/cm^2 and spread evenly using a positive displacement pipette.
# After 2 and 6 hours, the skin samples were washed, tape stripped twice, and then the epidermis was peeled from the dermis using a heat block. The skin samples were then extracted with acetonitrile overnight at 4° C. The distribution of tazarotene and its degradants within the epidermis, dermis and surface wash were quantified by LC/MS/MS with a 50 pg/mL LOQ. The experiments were performed under yellow light conditions. For the purposes of comparison, mixtures of DUAC gel and TAZORAC cream were also prepared and retained for stability testing at 0, 2 and 6 hour time points.
# [5] = Stability in human plasma at room temperature; assay type: in vitro ADME
# Description: (§1) Tazarotene, tazarotene sulfoxide and tazarotene benzoate were incubated at room temperature with human and rat plasma. The incubation was carried out in duplicate and samples were taken at specific time points for stability analyses (i) rat samples (0 hour, 2 hours and 4 hours) and (ii) human samples (0 hour, 2 hours, 4 hours and 8 hours). Samples were analyzed by LC-MS/MS.
# [6] = Stability in rat plasma at room temperature; assay type: in vitro ADME
# Description: as §1
# [7] = HPLC analysis of mixtures of DUAC gel and TAZORAC cream (degradation of tazarotene in the presence of benzoyl peroxide); assay type: physicochemical; conditions: fresh samples; 35° C.; 4 hours
# Description: DUAC® gel (1% clindamycin and 5% benzoyl peroxide marketed by Stiefel Laboratories, Inc.) and TAZORAC® cream (0.1% tazarotene marketed by Allergan, Inc.) have been successfully used to treat facial acne. However, these topical treatments are not approved for concomitant use. To study whether tazarotene is susceptible to oxidative decomposition by benzoyl peroxide, an in vitro laboratory study was conducted wherein a mixture of DUAC gel and TAZORAC cream was prepared.
# Samples were prepared by taking equal portions of DUAC gel and TAZORAC cream and mixing them thoroughly at room temperature with a spatula in a suitable container to form a uniform mixture. The initial samples were analyzed immediately by HPLC. The other samples were placed into an oven at 35° C. and removed for analysis after one, two, four, six and eight hours. An allowance was made for product evaporation over the course of the study.
# [8] = 1 μM initial concentration, Complete (with NADPH), 0 min
# [9] = 1 μM initial concentration, Complete (with NADPH), 15 min
# [10] = 1 μM initial concentration, Complete (with NADPH), 30 min
# [11] = 1 μM initial concentration, Complete (with NADPH), 45 min
# [12] = 1 μM initial concentration, Complete (with NADPH), 60 min
# [13] = 1 μM initial concentration, Without NADPH, 0 min
# [14] = 1 μM initial concentration, Without NADPH, 15 min
# [15] = 1 μM initial concentration, Without NADPH, 30 min
# [16] = 1 μM initial concentration, Without NADPH, 45 min
# [17] = 1 μM initial concentration, Without NADPH, 60 min
# [18] = 10 μM initial concentration, Complete (with NADPH), 0 min
# [19] = 10 μM initial concentration, Complete (with NADPH), 15 min
# [20] = 10 μM initial concentration, Complete (with NADPH), 30 min
# [21] = 10 μM initial concentration, Complete (with NADPH), 45 min
# [22] = 10 μM initial concentration, Complete (with NADPH), 60 min
# [23] = 10 μM initial concentration, Without NADPH, 0 min
# [24] = 10 μM initial concentration, Without NADPH, 15 min
# [25] = 10 μM initial concentration, Without NADPH, 30 min
# [26] = 10 μM initial concentration, Without NADPH, 45 min
# [27] = 10 μM initial concentration, Without NADPH, 60 min
SMILES,"Test Article remaining, percent of initial concentration [3, 8] [%]","Test Article remaining, percent of initial concentration [3, 9] [%]","Test Article remaining, percent of initial concentration [3, 10] [%]","Test Article remaining, percent of initial concentration [3, 11] [%]","Test Article remaining, percent of initial concentration [3, 12] [%]","Test Article remaining, percent of initial concentration [3, 13] [%]","Test Article remaining, percent of initial concentration [3, 14] [%]","Test Article remaining, percent of initial concentration [3, 15] [%]","Test Article remaining, percent of initial concentration [3, 16] [%]","Test Article remaining, percent of initial concentration [3, 17] [%]","Test Article remaining, percent of initial concentration [3, 18] [%]","Test Article remaining, percent of initial concentration [3, 19] [%]","Test Article remaining, percent of initial concentration [3, 20] [%]","Test Article remaining, percent of initial concentration [3, 21] [%]","Test Article remaining, percent of initial concentration [3, 22] [%]","Test Article remaining, percent of initial concentration [3, 23] [%]","Test Article remaining, percent of initial concentration [3, 24] [%]","Test Article remaining, percent of initial concentration [3, 25] [%]","Test Article remaining, percent of initial concentration [3, 26] [%]","Test Article remaining, percent of initial concentration [3, 27] [%]",also measured
"CCOC(=O)c1ccc(C#Cc2ccc3c(c2)C(C)(C)CC(OC(=O)c2cccnc2)S3)nc1 (centres unmarked) [Compound 7, 6-[4,4-Dimethyl-2-(pyridine-3-carbonyloxy)thiochroman-6-ylethynyl]nicotinic acid ethyl ester]",–,–,–,–,–,–,–,–,–,–,–,–,–,–,–,–,–,–,–,–,fold induction at 2830 µM ([1]; read-out: K4 Fold Change vs Untreated/OD controls (upregulation)): 23; fold induction at 2830 µM ([1]; read-out: K13 Fold Change vs Untreated/OD controls (upregulation)): 8; fold induction at 2830 µM ([1]; read-out: K19 Fold Change vs Untreated/OD controls (upregulation)): 17; less reactive with BPO than tazarotene and hydroxy tazarotenic acid [2]: ~25 times
CC1(C)CCSc2ccc(C#Cc3ccc(C(=O)O)cn3)cc21 [Tazarotenic acid],100,89.9,82.0,75.8,68.0,100,100,101,102,101,100,93.1,88.6,77.8,77.4,100,102,99.0,106,102,"k constant ([3]; 1 μM, Complete): −0.0064; k constant ([3]; 1 μM, Without NADPH): 0.0003; k constant ([3]; 10 μM, Complete): −0.0047; k constant ([3]; 10 μM, Without NADPH): 0.0006; metabolized by human liver microsomes ([3]; in the absence of NADPH): not metabolized; metabolized by human liver microsomes to tazarotenic acid sulfoxide ([3]; in the presence of NADPH): slowly metabolized; half-life at 1 µM (in vitro; Complete): 108 min; half-life at 10 µM (in vitro; Complete): 147 min; detection of tazarotenic acid ([4]; under these experimental conditions): not detected"
"CCOC(=O)c1ccc(C#Cc2ccc3c(c2)C(C)(C)CC[S+]3[O-])nc1 (centres unmarked) [Tazarotene sulfoxide, 6-(4,4-Dimethyl-1-oxo-1λ^4-thiochroman-6-ylethynyl)nicotinic acid ethyl ester]",100,25.6,8.86,4.24,2.17,100,27.9,8.40,2.72,1.11,100,30.9,11.4,4.80,2.70,100,30.4,8.96,2.98,1.18,"concentration in human plasma ([5]; 0 hour): 36.2 ng/mL; concentration in human plasma ([5]; 2 hours): 34.0 ng/mL; concentration in human plasma ([5]; 4 hours): 32.2 ng/mL; concentration in human plasma ([5]; 8 hours): 31.9 ng/mL; k constant ([3]; 1 μM, Complete): −0.0689; k constant ([3]; 1 μM, Without NADPH): −0.0779; k constant ([3]; 10 μM, Complete): −0.0647; k constant ([3]; 10 μM, Without NADPH): −0.0763; concentration in rat plasma ([6]; 0 hour): 34.1 ng/mL; concentration in rat plasma ([6]; 2 hours): <LOD; concentration in rat plasma ([6]; 4 hours): <LOD; half-life at 1 µM (in vitro; Complete): 10.1 min; half-life at 1 µM (in vitro; Without NADPH): 8.9 min; half-life at 10 µM (in vitro; Complete): 10.7 min; half-life at 10 µM (in vitro; Without NADPH): 9.08 min; % Label Tazarotene Sulfoxide [7]: ~16 % Label; identified in the epidermis and dermis ([4]; after 2 hours of application of the DUAC/TAZORAC mixture to the skin): identified in the epidermis and dermis; quantity in stability samples at the 6 hour time point relative to the 2 hour time point ([4]; mixture of DUAC gel and TAZORAC cream retained for stability testing): doubled"
